In one data set the target is T1, TLR2/6 (Homo sapiens, UniProt O60603).
T1 construct: host or cells: HEK-Blue hTLR2 cells
The data set can be described thus: TLR2/6 (Pam2CSK4)-induced NF-κB/AP-1 SEAP reporter in HEK-Blue hTLR2 cells. The class given is cell-based. The settings on record: for TLR2-mediated NF-κB activation in primary screen, TLR2/6 (in words) / IC50: Pam2CSK4 1 ng/mL; for TLR2-mediated NF-κB activation in primary screen, TLR2/6 (in words): Figure 3A; for IC50: HEK-Blue hTLR2 cells, n=3, 95 % confidence interval in brackets; for Pam2CSK4-induced TLR2/6 response (remaining): compound at 50 μM, 1 h pre-incubation, Pam2CSK4 1 ng/mL 24 h. How it is done:
(§1) Figure 3 Inhibition of TLR2‐dependent NF‐κB activation and IL‐8 secretion. A) HEK‐Blue hTLR2 cells were pre‐incubated with CU‐CPT22 or compounds 1–6 and 9–11 for 1 h and then stimulated additionally with TLR2/1 agonist Pam3CSK4 (10 ng/mL) or TLR2/6 agonist Pam2CSK4 (1 ng/mL) for 24 h. B) HEK‐Blue hTLR2 cells were pre‐incubated with increasing concentrations of 4, 6, 9, 10 and then stimulated additionally with Pam3CSK4 or Pam2CSK4 for 24 h. Supernatants were tested for TLR2‐mediated NF‐κB/AP‐1 activity by quantification of SEAP release (OD640). C) THP‐1 macrophages were incubated with CU‐CPT22 (25 μM) or compound 6 for 1 h and afterwards stimulated with Pam3CSK4 (10 ng/mL), Pam2CSK4 (1ng/mL), LPS (10 ng/mL), flagellin (1 μg/mL), CL075 (8 μM) or ODN2006 (5 μM) for 24 h. Supernatants were analyzed for IL‐8 secretion by ELISA. Mean+SD or ±SD (n=3).
(§2) Cell culture: Human embryonic kidney (HEK)‐Blue hTLR2 cells (InvivoGen, Touluse, France) were used from passage 5 to 20. Stimulation of the cells with TLR2 agonists leads to production and secretion of NF‐κB‐inducible embryonic alkaline phosphatase (SEAP). The enzyme transforms the substrate QUANTI‐Blue (InvivoGen) into a blue dye that was detected by optical density (OD) at 640 nm as previously described.11a, 12 THP‐1 cells (DSMZ, Braunschweig, Germany) from passage 10 to 15 were cultured as previously reported.13 For the generation of THP‐1 macrophages, THP‐1 monocytes were first incubated with 25 ng/mL Phorbol 12‐myristate 13‐acetate (PMA, Sigma‐Aldrich) for 48 h and afterwards rested for 24 h. The cell lines were cultured at 37 °C in a humidified atmosphere of 5 % CO2 and 95 % air and were regularly tested negative for mycoplasma contamination (VenorGeM Classic Mycoplasma PCR detection kit, Minerva Biolabs, Berlin, Germany).
(§3) Cell stimulation: HEK‐Blue hTLR2 cells (4×10^4 cells/well) and THP‐1 macrophages (2×10^5 cells/well) were cultured in 96‐well plates and 24‐well plates (TPP, Trasadingen, Switzerland). After cells were washed with phosphate‐buffered saline (PBS, Sigma‐Aldrich), cell stimulation was done in OptiMEM (ThermoFisher Scientific). The tested compounds and CU‐CPT22 (50 mM) were dissolved in DMSO. Final DMSO concentrations in cell culture were below 0.2 % (v/v). […] For co‐stimulation of TLR2 agonists and tested modulators, cells were preincubated with the compounds or CU‐CPT22 for 1 h and afterwards stimulated with the agonists.
(§4) Statistical analysis: Data of the bar charts are shown as mean+SD. Potency (IC50) data are presented as mean with the confidence interval (95 %). Statistical analysis was done by using GraphPad Prism 6.0 (GraphPad software, San Diego, USA). Nonlinear regression was used to plot and analyze concentration‐response curves and to obtain IC50 values.

The next data set has as its target T2, TLR2/1 (Homo sapiens, UniProt O60603).
T2 construct: host or cells: HEK-Blue hTLR2 cells
As to the kind of experiment: TLR2/1 (Pam3CSK4)-induced NF-κB/AP-1 SEAP reporter in HEK-Blue hTLR2 cells. The settings on record: for TLR2-mediated NF-κB activation in primary screen, TLR2/1 (in words) / IC50: Pam3CSK4 10 ng/mL; for TLR2-mediated NF-κB activation in primary screen, TLR2/1 (in words): Figure 3A; for IC50: HEK-Blue hTLR2 cells, n=3, 95 % confidence interval in brackets; for Pam3CSK4-induced TLR2/1 response (remaining): compound at 50 μM, 1 h pre-incubation, Pam3CSK4 10 ng/mL 24 h. It is filed as cell-based. As to the method: as §1, §2, §3, §4

In another data set the test system is other TLR subtypes. As to the kind of experiment: IL-8 secretion (ELISA) in THP-1 macrophages stimulated with agonists of other TLRs. The settings on record: LPS, flagellin, CL075 or ODN2006 for 24 h. The class given is cell-based, human. As to the method: as §1, with “C) THP‐1 macrophages were incubated with CU‐CPT22 (25 μM) or compound 6 for 1 h and afterwards stimulated with Pam3CSK4 (10 ng/mL), Pam2CSK4 (1ng/mL), LPS (10 ng/mL), flagellin (1 μg/mL), CL075 (8 μM) or ODN2006 (5 μM) for 24 h.” left out, “Mean+SD or ±SD (n=3).” left out
Cell culture: Human embryonic kidney (HEK)‐Blue hTLR2 cells (InvivoGen, Touluse, France) were used from passage 5 to 20. […] The enzyme transforms the substrate QUANTI‐Blue (InvivoGen) into a blue dye that was detected by optical density (OD) at 640 nm as previously described.11a, 12 THP‐1 cells (DSMZ, Braunschweig, Germany) from passage 10 to 15 were cultured as previously reported.13 For the generation of THP‐1 macrophages, THP‐1 monocytes were first incubated with 25 ng/mL Phorbol 12‐myristate 13‐acetate (PMA, Sigma‐Aldrich) for 48 h and afterwards rested for 24 h. […]
ELISA: Commercially available ELISA kits were used for detecting human IL‐8 levels in cell culture supernatants (ELISA‐Ready Set Go, Invitrogen by Thermo Fisher Scientific).
(An ELISA detects its analyte on a solid surface through an enzyme-linked reagent.)

Another data set addresses T3, TLR2 (Homo sapiens, UniProt O60603).
T3 construct: host or cells: HEK-Blue hTLR2 cells
The data set can be described thus: Agonistic TLR2 activity, SEAP production in HEK-Blue hTLR2 cells. The class given is cell-based. The settings on record: compounds alone for 24 h, SEAP OD 640 nm. How it is done: as §2
(§5) 1.1 Supplementary Figure 1: Agonistic activity and cell viability […]
up to 50 µM. (A) HEK-Blue hTLR2 cells were stimulated with Pam3CSK4 (10 ng/ml) or the compounds 1-9 for 24 h. SEAP production was detected by QUANTI-Blue as OD at 640 nm. (B) HEK-Blue hTLR2 cells were stimulated with DMSO (10% v/v) or the compounds for 24 h. Cell viability was determined by MTT assay and normalized to unstimulated cells (dashed line). Mean +SD (n=3). […]

Another data set deals with HEK-Blue hTLR2 cells. As to the kind of experiment: Cell viability by MTT assay. The class given is cell-based, human. The settings on record: 24 h. As to the method: Cell viability: Cell viability was assessed by the MTT assay in HEK Blue hTLR2 cells as previously described.14 10 % (v/v) DMSO (Carl Roth) served as control and the viability of untreated cells was defined as 100 %.
as §5
up to 50 µM. (A) HEK-Blue hTLR2 cells were stimulated with Pam3CSK4 (10 ng/ml) or the compounds 1-9 for 24 h. SEAP production was detected by QUANTI-Blue as OD at 640 nm. (B) HEK-Blue hTLR2 cells were stimulated with DMSO (10% v/v) or the compounds for 24 h. Cell viability was determined by MTT assay and normalized to unstimulated cells (dashed line). Mean +SD (n=3).
(1 picture or pasted object on this page, not shown here)

Data set [1] is described as follows: Chemical stability toward oxidation. The settings on record: aerobic conditions; 7 and 8 on debenzylation of the protected intermediates. It is filed as physicochemical. The text has this: Aromatic ketone 5, in which the amide linker between two benzene rings is replaced by a ketomethylene unit, was obtained via the direct C‐acylation of resorcinol (1,3‐diphenol) with 3,4‐dimethoxy‐phenyl acetic acid using boron trifluoride diethyl etherate as the activating Lewis acid in 19 % yield. Compounds 1–6 were isolated with >95 % purity by column chromatography. Synthesis of the trihydroxy‐derivatives, ethyl 3‐(2,3,4‐trihydroxy‐benzamido)benzoate 7 and ethyl 3‐(3,4,5‐trihydroxy‐benzamido)benzoate 8 was attempted following the same strategy as in Scheme 2. […] 7 and 8 therefore could not be isolated and tested biologically.

T2 sequence (O60603 21-784): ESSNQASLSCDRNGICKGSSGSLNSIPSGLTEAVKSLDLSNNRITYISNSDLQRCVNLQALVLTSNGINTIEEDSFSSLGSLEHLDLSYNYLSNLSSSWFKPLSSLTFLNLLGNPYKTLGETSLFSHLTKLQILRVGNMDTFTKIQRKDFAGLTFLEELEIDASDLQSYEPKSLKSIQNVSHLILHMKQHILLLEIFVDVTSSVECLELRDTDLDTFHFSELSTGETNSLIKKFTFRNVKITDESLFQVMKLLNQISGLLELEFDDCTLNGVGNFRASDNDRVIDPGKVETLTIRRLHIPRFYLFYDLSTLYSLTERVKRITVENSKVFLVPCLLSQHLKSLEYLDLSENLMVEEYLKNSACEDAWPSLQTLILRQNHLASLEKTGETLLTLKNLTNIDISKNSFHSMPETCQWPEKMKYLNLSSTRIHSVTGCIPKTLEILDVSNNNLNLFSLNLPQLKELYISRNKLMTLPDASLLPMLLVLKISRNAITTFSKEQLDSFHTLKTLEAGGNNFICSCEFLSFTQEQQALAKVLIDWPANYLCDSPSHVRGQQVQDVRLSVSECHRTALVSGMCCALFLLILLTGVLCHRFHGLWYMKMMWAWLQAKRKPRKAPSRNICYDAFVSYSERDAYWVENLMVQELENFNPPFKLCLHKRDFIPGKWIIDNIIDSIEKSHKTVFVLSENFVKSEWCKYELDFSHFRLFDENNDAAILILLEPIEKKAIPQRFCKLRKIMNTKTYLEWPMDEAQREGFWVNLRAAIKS
T1 sequence (O60603 21-784): as above
T3 sequence (O60603 21-784): as above

As for `CCOC(=O)c1cccc(NC(=O)c2ccc(O)cc2O)c1` [Compound 1, Ethyl 3‐(2,4‐dihydroxy‐benzamido)benzoate], the “TLR2-mediated NF-κB activation in primary screen, TLR2/6 (in words)” value at TLR2/6 was “Except for 1, all selected compounds decreased”. Moreover, on TLR2/1, the “TLR2-mediated NF-κB activation in primary screen, TLR2/1 (in words)” value is reported as “Except for 1, all selected compounds decreased”.

The compound `CCOC(=O)c1cccc(NC(=O)Cc2ccc(OC)c(OC)c2)c1` [Compound 4, Ethyl 3‐(2‐(3,4‐dimethoxyphenyl)acetamido)benzoate] displayed an IC50 against TLR2/6 of 61.9 µM. Besides, at TLR2/1, the half-maximal inhibitory concentration (IC50) was found to be 44.9 µM and the “Pam3CSK4-induced TLR2/1 response (remaining)” value is on record as “less than 40%”.

Turning to `CCOC(=O)c1cccc(NC(=O)c2cc(O)cc(O)c2)c1` [Compound 6, Ethyl 3‐(3,5‐dihydroxy‐benzamido)benzoate], in the data set on other TLR subtypes, the “influence on other TLR subtypes (IL-8 secretion)” value is reported as “no influence on other TLR subtypes”. In addition, at TLR2/6, the IC50 is 13.6 µM and the “TLR2-mediated NF-κB activation in primary screen, TLR2/6 (in words)” value is given as “abrogated the TLR2 response of both heterodimers almost completely”. The “agonistic TLR2 activity” value at TLR2 is “no agonistic activity”. Besides, on TLR2/1, the IC50 stood at 15.4 µM; the “Pam3CSK4-induced TLR2/1 response (remaining)” value was “less than 40%”; the “TLR2-mediated NF-κB activation in primary screen, TLR2/1 (in words)” value is “abrogated the TLR2 response of both heterodimers almost completely”. Besides, in the data set with HEK-Blue hTLR2 cells, the “cytotoxic effects / cell viability (in words)” value is “nontoxic” and the “lowest concentration reducing cell viability” value was above 50 µM. Besides, the “chemical stability / sensitivity to oxidation” value in data set [1] is recorded as “chemically stable”.

On to `CCOC(=O)c1cccc(NC(=O)c2ccc(O)c(O)c2O)c1` [Compound 7, ethyl 3‐(2,3,4‐trihydroxy‐benzamido)benzoate], for which the “chemical stability / sensitivity to oxidation” value in data set [1] is listed as “instantaneous decomposition”.

Regarding `CCOC(=O)c1cccc(NC(=O)c2cc(O)c(O)c(O)c2)c1` [Compound 8, ethyl 3‐(3,4,5‐trihydroxy‐benzamido)benzoate], the “chemical stability / sensitivity to oxidation” value in data set [1] is “instantaneous decomposition”.

Turning to `COC(=O)c1ccc(CC(=O)c2ccc(O)cc2O)o1` [Compound 9], on TLR2/6, the IC50 came to 42.9 µM and the “Pam2CSK4-induced TLR2/6 response (remaining)” value is reported as “less than 50%”. On TLR2/1, the IC50 was 42.4 µM and the “Pam3CSK4-induced TLR2/1 response (remaining)” value is recorded as “less than 40%”.

`CCOC(=O)c1ccc(CC(=O)c2c(C)cc(O)cc2O)o1` [Compound 10]: on TLR2/6, the IC50 amounted to 40.7 µM and the “Pam2CSK4-induced TLR2/6 response (remaining)” value is “less than 50%”. Also, on TLR2/1, inhibition was half-maximal at 44 µM (IC50) and the “Pam3CSK4-induced TLR2/1 response (remaining)” value is “less than 40%”.

As for `CCCc1cc(C(=O)Cc2ccc(C(=O)OCC)o2)c(O)cc1O` [Compound 11], the “TLR2-mediated NF-κB activation in primary screen, TLR2/6 (in words)” value at TLR2/6 is listed as “abrogated the TLR2 response of both heterodimers almost completely”. The “TLR2-mediated NF-κB activation in primary screen, TLR2/1 (in words)” value on TLR2/1 is given as “abrogated the TLR2 response of both heterodimers almost completely”. Moreover, in the data set with HEK-Blue hTLR2 cells, the “cytotoxic effects / cell viability (in words)” value is on record as “cytotoxic” and the “lowest concentration reducing cell viability” value is 50 µM.

A word on the IC50: it is the concentration needed to halve the response being measured.
